Assays:
Type in all cases: in vivo
rats [1] = assay: Formation of cotton ball granuloma in rats (Example 59 Test 2); settings: 10 mg/kg intramuscular, two weeks
Experimental: Rats were randomly divided into five groups (model control group, indomethacin group, rhein glucosamine large dose group and low dose group and rhein sodium group). Each group included 10 rats, and built models according to the method in the literature [Xu Shuyun, Methodology in Pharmacological Experiment (the 3rd version): 918]. The rats were administered by medicines from the day when starting the operation. […] The rats were killed in two weeks, and tests were performed according to the methods in the literature, the net weight of granulation was calculated, and t test was used for the intergroup comparison.

rats [2] = assay: Carrageenan-induced acute pleurisy exudation and leukoplania in rats; settings: intraperitoneal 10 mg/kg, four hours after carrageenan
Experimental: Forty male rats of 200±20 g weight were selected and divided into five groups, namely, model control group, indomethacin group, rhein sodium group, rhein glucosamine large dose group and small dose group. Eight rats for each group. The rats were administered with medicines by intraperitoneal administration, one hour later, the rats were induced with acute pleurisy by carrageenan according to the method in the literature [Xu Shuyun, Methodology in Pharmacological Experiment (the 3rd version): 916]. Four hours later, the rats were killed and the volume of pleural effusion and total white cell count were measured.

rats [3] = assay: Formation of granuloma in rats (arthritis example, test 4); settings: 10 mg/kg intramuscular, two weeks
Experimental: Rats were randomly divided into five groups (model control group, indomethacin group, rhein glucosamine large dose group and small dose group and rhein sodium group). Each group has 10 […]. According to the method in the literature [Xu Shuyun, Methodology in Pharmacological Experiment (the 3rd version): 918], the models were built, and the rats were administered with medicines since the day when starting operations. […] Two weeks later, the rats were killed and test was carried on according to the method in the literature. The net weight of granulation was calculated, and t test was used for the intergroup comparison.

In the case of COc1ccc2c(c1)c(CC(=O)O)c(C)n2C(=O)c1ccc(Cl)cc1 [indomethacin], the “net weight of granulation” value (rats [1]) is reported as 12.21 ± 2.43 mg, the “Volume of exudation fluid” value (rats [2]) is reported as 0.26 ± 0.11 and the WBC (rats [2]) is reported as 3.01 ± 1.59 ×109/L. The “Net weight of granulation” value (rats [3]) was 12.17 ± 2.49 mg.

From patent US9181172B2, “Rhein conjugates, preparation method thereof and their uses in producing medicines for treating diabetic nephrosis, intestinal adhesion and osteoarthritis” (priority 2005, dated 2015)
